The experiment has as its target Bruton's Tyrosine Kinase (BTK), inactivated state (Homo sapiens (Human), UniProt Q06187). Description: Bruton's Tyrosine Kinase (BTK) Inhibition TR-FRET (Time Resolved FRET) competition assay. It is filed as binding. Conditions: BTK-Eu / Kinase Tracer 178 competition, incubated 18-24 h at 14° C. Here is the method:
10) Add 50 μL microscint-20 and count ^33P cpm on scintillation counter. • Calculate percent activity from raw data in cpm percent activity=(sample−bkg)/(total activity−bkg)×100 • Calculate IC50 from percent activity, using one-site dose response sigmoidal model y=A+((B−A)/(1+((x/C)^D)))) • x=cmpd conc, y=% activity, A=min, B=max, C=IC50, D=1 (hill slope) Bruton's Tyrosine Kinase (BTK) Inhibition TR-FRET (Time Resolved FRET) Assay
This BTK competition assay measures compound potency (IC50) for the inactivated state of Bruton's Tyrosine Kinase using FRET (Förster/Flouresence Resonance Energy Transfer) technology. The BTK-Eu complex was incubated on ice one hour prior to use at a starting concentration of 50 nM BTK-Bioease™: 10 nM Eu-streptavidin (Perkin-Elmer Catalog# AD0062). The assay buffer consisted of 20 mM HEPES (pH 7.15), 0.1 mM DTT, 10 mM MgCl2, 0.5 mg/ml BSA with 3% Kinase Stabilizer (Fremont Biosolutions, Catalog # STB-K02). After 1 h, the reaction mixture from above was diluted 10 fold in assay buffer to make 5 nM BTK: 1 nM Eu-Streptavidin complex (donor fluorophore). 18 μl of a mixture of 0.11 nM BTK-Eu and 0.11 nM Kinase Tracer 178 (Invitrogen, Catalog # PV5593) with BTK-Eu alone as no negative control, was then dispensed into 384-well flat bottom plates (Greiner, 784076). Compounds to be tested in assay were prepared as 10× concentrations and serial dilution in half-log increments was performed in DMSO so as to generate 10 point curves. To initiate the FRET reaction, compounds prepared as 10× stock in DMSO was added to the plates and the plates were incubated 18-24 h at 14° C.

Bruton's Tyrosine Kinase (BTK), inactivated state, sequence (Q06187 whole entry): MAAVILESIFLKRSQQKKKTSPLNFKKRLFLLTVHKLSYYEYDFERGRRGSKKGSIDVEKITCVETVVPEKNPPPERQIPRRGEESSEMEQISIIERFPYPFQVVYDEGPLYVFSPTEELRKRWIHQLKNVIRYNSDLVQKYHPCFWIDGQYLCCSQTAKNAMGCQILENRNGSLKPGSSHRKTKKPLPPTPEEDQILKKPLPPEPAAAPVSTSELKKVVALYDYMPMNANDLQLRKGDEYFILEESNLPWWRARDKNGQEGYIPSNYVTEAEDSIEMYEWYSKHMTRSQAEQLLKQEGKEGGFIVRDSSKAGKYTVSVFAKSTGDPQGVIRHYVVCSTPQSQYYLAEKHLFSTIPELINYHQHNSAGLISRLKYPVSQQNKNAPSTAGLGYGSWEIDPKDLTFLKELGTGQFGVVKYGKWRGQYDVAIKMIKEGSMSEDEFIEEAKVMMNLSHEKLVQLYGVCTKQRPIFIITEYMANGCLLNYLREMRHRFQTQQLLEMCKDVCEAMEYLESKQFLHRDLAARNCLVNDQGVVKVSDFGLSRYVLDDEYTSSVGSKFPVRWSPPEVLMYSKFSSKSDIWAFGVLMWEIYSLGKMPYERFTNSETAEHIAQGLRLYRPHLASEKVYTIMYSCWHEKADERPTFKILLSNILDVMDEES

The molecule `Cn1nc(-c2cccc(N3CCc4cc(C(C)(C)C#N)ccc4C3=O)c2CO)cc(Nc2ccc(C(=O)N3CCOCC3)cn2)c1=O` [Compound 1, 2-[2-[2-(hydroxymethyl)-3-[1-methyl-5-[[5-(morpholine-4-carbonyl)pyridin-2-yl]amino]-6-oxopyridazin-3-yl]phenyl]-1-oxo-3,4-dihydroisoquinolin-6-yl]-2-methylpropanenitrile] returned an IC50 of 11.2 nM.
The molecule `Cn1nc(-c2cccc(-n3ccc4cc(C(C)(C)C#N)cc(F)c4c3=O)c2CO)cc(Nc2ccc(OC(C)(C)CO)cn2)c1=O` [Compound 2, 2-[8-fluoro-2-[2-(hydroxymethyl)-3-[5-[[5-(1-hydroxy-2-methylpropan-2-yl)oxypyridin-2-yl]amino]-1-methyl-6-oxopyridazin-3-yl]phenyl]-1-oxoisoquinolin-6-yl]-2-methylpropanenitrile] showed an IC50 of 1.12 nM. This IC50 lies about 10-fold lower than the previous one.
Regarding `Cn1nc(-c2cccc(N3CCOc4cc(C(C)(C)CO)ccc4C3=O)c2CO)cc(Nc2ccc(S(C)(=O)=O)cn2)c1=O` [Compound 3, 4-[2-(hydroxymethyl)-3-[1-methyl-5-[(5-methylsulfonylpyridin-2-yl)amino]-6-oxopyridazin-3-yl]phenyl]-8-(1-hydroxy-2-methylpropan-2-yl)-2,3-dihydro-1,4-benzoxazepin-5-one], the IC50 worked out at 52.6 nM. This IC50 is about 47-fold higher than that of the molecule before.
In the case of `Cn1cc(-c2cccc(NC(=O)N3Cc4ccc(Cl)cc4C3)c2CO)cc(Nc2ccc(C(=O)N3CCOCC3)cn2)c1=O` [Compound 4, 5-chloro-N-[2-(hydroxymethyl)-3-[1-methyl-5-[[5-(morpholine-4-carbonyl)pyridin-2-yl]amino]-6-oxopyridin-3-yl]phenyl]-1,3-dihydroisoindole-2-carboxamide], the IC50 came to 31.9 nM.
The molecule `Cn1cc(-c2cccc(N3CCc4cc(C(C)(C)C)ncc4C3=O)c2CO)cc(Nc2ccc(C(=O)N3CCOCC3)cn2)c1=O` [Compound 5, 6-tert-butyl-2-[2-(hydroxymethyl)-3-[1-methyl-5-[[5-(morpholine-4-carbonyl)pyridin-2-yl]amino]-6-oxopyridin-3-yl]phenyl]-3,4-dihydro-2,7-naphthyridin-1-one] gave an IC50 of 13.7 nM.
For the molecule `Cn1nc(-c2cccc(N3CCc4cc(C(C)(C)C)ncc4C3=O)c2CO)cc(Nc2ccc(C(=O)N3CCOCC3)cn2)c1=O` [Compound 6, 6-tert-butyl-2-[2-(hydroxymethyl)-3-[1-methyl-5-[[5-(morpholine-4-carbonyl)pyridin-2-yl]amino]-6-oxopyridazin-3-yl]phenyl]-3,4-dihydro-2,7-naphthyridin-1-one], the IC50 turned out to be 14.6 nM.
As for `Cc1c(-c2cc(Nc3ccc(C(=O)N4CCOCC4)cn3)c(=O)n(C)n2)cccc1-n1ncc2cc(C(C)(C)C)cc(F)c2c1=O` [Compound 7, 6-tert-butyl-8-fluoro-2-[2-methyl-3-[1-methyl-5-[[5-(morpholine-4-carbonyl)pyridin-2-yl]amino]-6-oxopyridazin-3-yl]phenyl]phthalazin-1-one], the figure is 6.5 nM; as for `Cn1nc(-c2cccc(N3CCOc4cc(C(C)(C)C)ccc4C3=O)c2CO)cc(Nc2ccc(C(=O)N3CCOCC3)cn2)c1=O` [Compound 8, 8-tert-butyl-4-[2-(hydroxymethyl)-3-[1-methyl-5-[[5-(morpholine-4-carbonyl)pyridin-2-yl]amino]-6-oxopyridazin-3-yl]phenyl]-2,3-dihydro-1,4-benzoxazepin-5-one], 1.77 nM; as for `Cn1nc(-c2cccc(N3CCOc4cc(C(C)(C)C)ccc4C3=O)c2CO)cc(Nc2ccc(S(C)(=O)=O)cn2)c1=O` [Compound 9, 8-tert-butyl-4-[2-(hydroxymethyl)-3-[1-methyl-5-[(5-methylsulfonylpyridin-2-yl)amino]-6-oxopyridazin-3-yl]phenyl]-2,3-dihydro-1,4-benzoxazepin-5-one], 4.24 nM.

By IC50 is commonly meant the point on the concentration scale where inhibition reaches its midpoint.

Source of the values: patent US9663494B2, “Inhibitors of bruton's tyrosine kinase” (Hoffmann-La Roche Inc., priority 2013, dated 2017).
